Test results reported in PubChem BioAssay AID1963839 (Molecular Pharmacology Branch, DTP, NCI, 2024).
pIC50: −log10 of the molar value.

Test system: 817829-284-R-J1-PDC complex spheroid viability
Assay: Anticancer human tumor 817829-284-R-J1-PDC patient-derived colon adenocarcinoma cell line growth inhibition [POLQ]
Details: for pIC50: curve of first compound; for viability, T/C: stronger effect = lower value; active means viability on the fitted dose curve at most 10% of control; inactive means the rest
Protocol: Multicellular complex tumor spheroid response to Polymerase (POL) inhibitors (novobiocin, ART-558, RP6685) in combination with a variety of drugs and investigational agents in selected tumor cell lines
The POL inhibitors (novobiocin, ART-558, and RP6685) were evaluated both individually and in combination with standard of care and investigational anticancer small molecules within a complex spheroid model of solid tumors. . Complex spheroids include a stromal component modeled by human endothelial cells (HUVEC) and fibroblasts modeled by human mesenchymal stem cells (MSCs). The concentration ranges selected for each drug and investigational agent were based upon clinically achievable concentrations if the clinical Cmax of the agent was known.
Compounds. The drugs and investigational agents: novobiocin (NSC847541), ART-558 (NSC835418), RP-6685 (NSC848927), peposertib (NSC802822), ceralasertib (NSC780249), elimusertib (NSC800525), camonsertib (NSC841442), AZD-1390 (NSC803789), olaparib (NSC753686), talazoparib (NSC767125), rucaparib (NSC756644), sotorasib (NSC818433), MRTX-1133 (NSC836407), SN-38 (NSC673596), topotecan (NSC609699), epotoside (NSC141540), doxorubicin (NSC123127), gemcitabine (NSC613327), 5-fluorouracil (NSC19893), paclitaxel (NSC125973), vemurafenib (NSC761431), MSA-2 (NSC828583), SN-011 (NSC837082), adavosertib (NSC754352), prexasertib (NSC758257), carboplatin (NSC241240) and oxaliplatin (NSC266046), were obtained from the National Cancer Institute (NCI) Developmental Therapeutics Program Chemical Repository (21). The FDA-approved anticancer drug set is available from the Developmental Therapeutics Program at https://dtp.cancer.gov/organization/dscb/obtaining/. […] The stock solutions were prepared in dimethyl sulfoxide (DMSO, Sigma-Aldrich, St. Louis, MO, cat. D2650), except for the platinum compounds which were prepared in saline (Quality Biological, Gaithersburg, MD, cat. 114-055-101), at 800-fold the tested concentration and stored at -70 degrees C prior to their use. All drugs and investigational agents were tested over a range starting from a high concentration at or near the clinical Cmax and decreasing in half-log increments. If the clinical Cmax for an agent had not been determined, the highest concentration tested was 10 microM, except for SN-38, which was tested at a high concentration of 1 microM.
Cell Culture. All cells were maintained in an incubator at 37 degrees C and 5% CO2 with 95% humidity. The PDC lines were cultured according to standard operating procedures established by the NCI PDMR (https://pdmr.cancer.gov). Table 3 of the manuscript, lists the cell lines along with the number of the three cell types plated to form the mct-spheroids and media for tumor cell growth. After thawing, all PDC lines, except 997537-175-T-J1-PDC and 415267-285-R-J2-PDC, were cultured in Matrigel-coated flasks prepared with a working solution of 1X Ham's F-12 nutrient mix, without supplementation (Thermo Fisher Scientific, cat. 11765054), 100 U/mL penicillin-streptomycin (Thermo Fisher Scientific, cat. 15140122), and 2.5% Matrigel (Corning Inc., Corning, NY, cat. 354248) for the first three passages. The two PDC lines 997537-175-T-J1-PDC and 415267-285-R-J2-PDC were cultured on uncoated flasks. The 857933-349-R-J2-PDC line was cultured in 6C/Colon 1B media containing advanced DMEM/F-12 (Thermo Fisher Scientific, cat. 12634028), 10 mM HEPES (Thermo Fisher Scientific, cat. 15630080), 1X GlutaMAX supplement (Thermo Fisher Scientific, cat. 35050061), 0.1 mg/mL primocin (InvivoGen, San Diego, CA, cat. ant-pm-2), 10% defined fetal bovine serum, heat inactivated (HyClone Laboratories Inc., Logan, UT, cat. SH30070.03HI), 50% L-WRN conditioned media (ATCC, cat. CRL-3276), 1.25 mM N-Acetyl-L-cysteine (Sigma-Aldrich, cat. A9165), 10 mM nicotinamide (Sigma-Aldrich, cat. N0636), 1X B-27 supplement (Thermo Fisher Scientific, cat. 17504044), 1X N-2 supplement (Thermo Fisher Scientific, cat. […]

[1] = second compound 0.0316 µM, first compound 0.0316 µM
[2] = second compound 0.0316 µM, first compound 0.1 µM
[3] = second compound 0.0316 µM, first compound 0.316 µM
[4] = second compound 0.0316 µM, first compound 1 µM
[5] = second compound 0.1 µM, first compound 0.0316 µM
[6] = second compound 0.1 µM, first compound 0.1 µM
[7] = second compound 0.1 µM, first compound 0.316 µM
[8] = second compound 0.1 µM, first compound 1 µM
[9] = second compound 0.316 µM, first compound 0.0316 µM
[10] = second compound 0.316 µM, first compound 0.1 µM
[11] = second compound 0.316 µM, first compound 0.316 µM
[12] = second compound 0.316 µM, first compound 1 µM
[13] = second compound 1 µM, first compound 0.0316 µM
[14] = second compound 1 µM, first compound 0.1 µM
[15] = second compound 1 µM, first compound 0.316 µM
[16] = second compound 1 µM, first compound 1 µM
[17] = second compound 3.16 µM, first compound 0.0316 µM
[18] = second compound 3.16 µM, first compound 0.1 µM
[19] = second compound 3.16 µM, first compound 0.316 µM
[20] = second compound 3.16 µM, first compound 1 µM
[21] = second compound 10 µM, first compound 0.0316 µM
[22] = second compound 10 µM, first compound 0.1 µM
[23] = second compound 10 µM, first compound 0.316 µM
[24] = second compound 10 µM, first compound 1 µM
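Further: spheroids exposed to compounds for 7 days.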
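Wherever viability, T/C is given: 100% = DMSO vehicle-treated spheroids.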

C=CCn1c(=O)c2cnc(Nc3ccc(N4CCN(C)CC4)cc3)nc2n1-c1cccc(C(C)(C)O)n1 + Cc1cccc(N(C)C(=O)C2C(O)CCN2c2nc(C)cc(C(F)(F)F)c2C#N)c1
active: viability, T/C [4] 5.25% | viability, T/C [8] 5.58% | viability, T/C [12] 7.22% | viability, T/C [16] 6.42% | viability, T/C [20] 6.52% | viability, T/C [24] 5.63%
6.63: pIC50 (second compound 1 µM) | pIC50 (second compound 10 µM)
6.81: pIC50 (second compound 0.0316 µM)
6.59: pIC50 (second compound 0.316 µM) | pIC50 (second compound 3.16 µM)
6.66: pIC50 (second compound 0.1 µM)
inactive: viability, T/C (second compound 0.0316 µM, first compound 0.00316 µM) 90.2% | viability, T/C (second compound 0.0316 µM, first compound 0.01 µM) 91.5% | viability, T/C [1] 102% | viability, T/C [2] 53.4% | viability, T/C [3] 34.8% | viability, T/C (second compound 0.1 µM, first compound 0.00316 µM) 91.6% | viability, T/C (second compound 0.1 µM, first compound 0.01 µM) 92.9% | viability, T/C [5] 89.3% | viability, T/C [6] 71.1% | viability, T/C [7] 39.9% | viability, T/C (second compound 0.316 µM, first compound 0.00316 µM) 98.3% | viability, T/C (second compound 0.316 µM, first compound 0.01 µM) 107% | viability, T/C [9] 93.8% | viability, T/C [10] 84.9% | viability, T/C [11] 42.6% | viability, T/C (second compound 1 µM, first compound 0.00316 µM) 111% | viability, T/C (second compound 1 µM, first compound 0.01 µM) 98.2% | viability, T/C [13] 101% | viability, T/C [14] 82.4% | viability, T/C [15] 38.7% | viability, T/C (second compound 3.16 µM, first compound 0.00316 µM) 104% | viability, T/C (second compound 3.16 µM, first compound 0.01 µM) 102% | viability, T/C [17] 99.6% | viability, T/C [18] 74.9% | viability, T/C [19] 45.3% | viability, T/C (second compound 10 µM, first compound 0.00316 µM) 118% | viability, T/C (second compound 10 µM, first compound 0.01 µM) 88.9% | viability, T/C [21] 86.2% | viability, T/C [22] 79.4% | viability, T/C [23] 39.5%

CC1COCCN1c1cc(C2(S(C)(=N)=O)CC2)nc(-c2ccnc3[nH]ccc23)n1 (centres undefined) + Cc1cccc(N(C)C(=O)C2C(O)CCN2c2nc(C)cc(C(F)(F)F)c2C#N)c1
inactive: viability, T/C [1] 114% | viability, T/C [2] 82.1% | viability, T/C [3] 62% | viability, T/C [4] 20.7% | viability, T/C (second compound 0.0316 µM, first compound 3.16 µM) 9.12% | viability, T/C [5] 80.6% | viability, T/C [6] 91.1% | viability, T/C [7] 53.5% | viability, T/C [8] 24.7% | viability, T/C [9] 121% | viability, T/C [10] 102% | viability, T/C [11] 75.9% | viability, T/C [12] 25.7% | viability, T/C [13] 104% | viability, T/C [14] 118% | viability, T/C [15] 52% | viability, T/C [16] 30.7% | viability, T/C (second compound 1 µM, first compound 3.16 µM) 7.73% | viability, T/C (second compound 1 µM, first compound 10 µM) 5.65% | viability, T/C [17] 105% | viability, T/C [18] 86.3% | viability, T/C [19] 54.6% | viability, T/C [20] 28.7% | viability, T/C (second compound 3.16 µM, first compound 3.16 µM) 7.73% | viability, T/C [21] 75.6% | viability, T/C [22] 92.2% | viability, T/C [23] 56.6% | viability, T/C [24] 27.7%
6.40: pIC50 (second compound 3.16 µM)
6.34: pIC50 (second compound 10 µM)
active: viability, T/C (second compound 0.0316 µM, first compound 10 µM) 5.39% | viability, T/C (second compound 0.1 µM, first compound 3.16 µM) 7.03% | viability, T/C (second compound 0.1 µM, first compound 10 µM) 4.47% | viability, T/C (second compound 0.316 µM, first compound 3.16 µM) 9.72% | viability, T/C (second compound 0.316 µM, first compound 10 µM) 5.65% | viability, T/C (second compound 3.16 µM, first compound 10 µM) 4.73% | viability, T/C (second compound 10 µM, first compound 3.16 µM) 8.08% | viability, T/C (second compound 10 µM, first compound 10 µM) 5.23%
6.39: pIC50 (second compound 0.1 µM)
6.25: pIC50 (second compound 0.316 µM)
6.42: pIC50 (second compound 0.0316 µM)
6.47: pIC50 (second compound 1 µM)
